Measured values: the NIST ThermoML archive (doi:10.1021/je900916e)

Test: cn = amount concentration of the nth substance listed, in mol/dm3
Settings: 101 kPa, Liquid, Advanced Conductivity Orion 162A

CC[N+](CC)(CC)CC.O=C([O-])C(F)(F)C(F)(F)C(F)(F)C(F)(F)C(F)(F)C(F)(F)C(F)(F)F [tetraethylammonium perfluorooctanoate] + O
Settings | electrical conductivity [S/m]
288.15 K, c1 = 0.000744 | 0.00332
288.15 K, c1 = 0.001478 | 0.00651
288.15 K, c1 = 0.0022 | 0.0094
288.15 K, c1 = 0.002913 | 0.0122
288.15 K, c1 = 0.003614 | 0.015
288.15 K, c1 = 0.004306 | 0.0176
288.15 K, c1 = 0.005101 | 0.0205
288.15 K, c1 = 0.005882 | 0.0233
288.15 K, c1 = 0.006651 | 0.0258
288.15 K, c1 = 0.007407 | 0.0275
288.15 K, c1 = 0.008152 | 0.0283
288.15 K, c1 = 0.009091 | 0.0292
288.15 K, c1 = 0.01011 | 0.0301
288.15 K, c1 = 0.01131 | 0.0311
288.15 K, c1 = 0.01266 | 0.0322
288.15 K, c1 = 0.01398 | 0.0332
288.15 K, c1 = 0.01543 | 0.0343
293.15 K, c1 = 0.000662 | 0.00339
293.15 K, c1 = 0.001316 | 0.00649
293.15 K, c1 = 0.001961 | 0.00944
293.15 K, c1 = 0.002597 | 0.0123
293.15 K, c1 = 0.003226 | 0.0149
293.15 K, c1 = 0.003846 | 0.0176
293.15 K, c1 = 0.004458 | 0.0201
293.15 K, c1 = 0.005063 | 0.0226
293.15 K, c1 = 0.00566 | 0.0249
293.15 K, c1 = 0.00625 | 0.027
293.15 K, c1 = 0.006832 | 0.029
293.15 K, c1 = 0.007407 | 0.0301
293.15 K, c1 = 0.007975 | 0.0309
293.15 K, c1 = 0.008536 | 0.0316
293.15 K, c1 = 0.00942 | 0.0325
293.15 K, c1 = 0.01029 | 0.0334
293.15 K, c1 = 0.01114 | 0.0342
293.15 K, c1 = 0.01218 | 0.0351
293.15 K, c1 = 0.01319 | 0.036
293.15 K, c1 = 0.01419 | 0.0369
293.15 K, c1 = 0.01516 | 0.0378
298.15 K, c1 = 0.000662 | 0.00389
298.15 K, c1 = 0.001316 | 0.00743
298.15 K, c1 = 0.001961 | 0.0108
298.15 K, c1 = 0.002597 | 0.0141
298.15 K, c1 = 0.003226 | 0.0172
298.15 K, c1 = 0.003846 | 0.0202
298.15 K, c1 = 0.004458 | 0.0231
298.15 K, c1 = 0.005063 | 0.0259
298.15 K, c1 = 0.00566 | 0.0286
298.15 K, c1 = 0.00625 | 0.0313
298.15 K, c1 = 0.006832 | 0.0329
298.15 K, c1 = 0.007407 | 0.0339
298.15 K, c1 = 0.007975 | 0.0348
298.15 K, c1 = 0.008536 | 0.0356
298.15 K, c1 = 0.00942 | 0.0366
298.15 K, c1 = 0.01029 | 0.0376
298.15 K, c1 = 0.01114 | 0.0386
298.15 K, c1 = 0.01218 | 0.0397
298.15 K, c1 = 0.01319 | 0.0409
298.15 K, c1 = 0.01419 | 0.042
298.15 K, c1 = 0.01516 | 0.0431
303.15 K, c1 = 0.000662 | 0.00431
303.15 K, c1 = 0.001316 | 0.00815
303.15 K, c1 = 0.001961 | 0.0119
303.15 K, c1 = 0.002597 | 0.0154
303.15 K, c1 = 0.003226 | 0.0189
303.15 K, c1 = 0.003846 | 0.0222
303.15 K, c1 = 0.004458 | 0.0254
303.15 K, c1 = 0.005063 | 0.0285
303.15 K, c1 = 0.00566 | 0.0314
303.15 K, c1 = 0.00625 | 0.0344
303.15 K, c1 = 0.006832 | 0.0365
303.15 K, c1 = 0.007407 | 0.038
303.15 K, c1 = 0.007975 | 0.0389
303.15 K, c1 = 0.008536 | 0.0398
303.15 K, c1 = 0.00942 | 0.0409
303.15 K, c1 = 0.01029 | 0.042
303.15 K, c1 = 0.01114 | 0.0431
303.15 K, c1 = 0.01218 | 0.0444
303.15 K, c1 = 0.01319 | 0.0457
303.15 K, c1 = 0.01419 | 0.047
303.15 K, c1 = 0.01516 | 0.0483
308.15 K, c1 = 0.000744 | 0.00544
308.15 K, c1 = 0.001478 | 0.0102
308.15 K, c1 = 0.0022 | 0.0148
308.15 K, c1 = 0.002913 | 0.0193
308.15 K, c1 = 0.003614 | 0.0234
308.15 K, c1 = 0.004306 | 0.0275
308.15 K, c1 = 0.004988 | 0.0316
308.15 K, c1 = 0.00566 | 0.0354
308.15 K, c1 = 0.006323 | 0.0391
308.15 K, c1 = 0.006977 | 0.0419
308.15 K, c1 = 0.007621 | 0.0433
308.15 K, c1 = 0.008467 | 0.0448
308.15 K, c1 = 0.009297 | 0.0462
308.15 K, c1 = 0.01011 | 0.0475
308.15 K, c1 = 0.01111 | 0.049
308.15 K, c1 = 0.01228 | 0.0508
308.15 K, c1 = 0.01361 | 0.0527
308.15 K, c1 = 0.01489 | 0.0545
308.15 K, c1 = 0.01632 | 0.0565
313.15 K, c1 = 0.000662 | 0.00523
313.15 K, c1 = 0.001316 | 0.0101
313.15 K, c1 = 0.001961 | 0.0146
313.15 K, c1 = 0.002597 | 0.0189
313.15 K, c1 = 0.003226 | 0.0231
313.15 K, c1 = 0.003846 | 0.0272
313.15 K, c1 = 0.004458 | 0.0312
313.15 K, c1 = 0.005063 | 0.0351
313.15 K, c1 = 0.00566 | 0.0388
313.15 K, c1 = 0.00625 | 0.0422
313.15 K, c1 = 0.006832 | 0.0455
313.15 K, c1 = 0.007407 | 0.047
313.15 K, c1 = 0.007975 | 0.0482
313.15 K, c1 = 0.008536 | 0.0493
313.15 K, c1 = 0.00942 | 0.0508
313.15 K, c1 = 0.01029 | 0.0523
313.15 K, c1 = 0.01114 | 0.0537
313.15 K, c1 = 0.01218 | 0.0554
313.15 K, c1 = 0.01319 | 0.0571
313.15 K, c1 = 0.01419 | 0.0587
313.15 K, c1 = 0.01516 | 0.0603
318.15 K, c1 = 0.000744 | 0.00628
318.15 K, c1 = 0.001478 | 0.0121
318.15 K, c1 = 0.0022 | 0.0177
318.15 K, c1 = 0.002913 | 0.023
318.15 K, c1 = 0.003614 | 0.028
318.15 K, c1 = 0.004306 | 0.033
318.15 K, c1 = 0.004988 | 0.0379
318.15 K, c1 = 0.00566 | 0.0424
318.15 K, c1 = 0.006323 | 0.0468
318.15 K, c1 = 0.006977 | 0.0504
318.15 K, c1 = 0.007621 | 0.0534
318.15 K, c1 = 0.008257 | 0.0548
318.15 K, c1 = 0.009091 | 0.0566
318.15 K, c1 = 0.00991 | 0.0583
318.15 K, c1 = 0.01091 | 0.0602
318.15 K, c1 = 0.01209 | 0.0624
318.15 K, c1 = 0.01342 | 0.0646
318.15 K, c1 = 0.01471 | 0.0667
318.15 K, c1 = 0.01614 | 0.0692
